Results on nine compounds are retold here after patent US7179823B1, “5-membered n-heterocyclic compounds with hypoglycemic and hypolipidemic activity” (Takeda Pharmaceutical Company Limited, priority 1999, dated 2007).

Data set [1] concerns KKA^y mice. Kind of data set: Hypoglycemic and hypolipidemic actions in mice. It is filed as in vivo. To be noted: Mus musculus, po, 96 h, four days; for inhibition in vivo at 0.0003 %: 0.0003% in powdery diet; for inhibition in vivo at 0.01 %: 0.01% in powdery diet; for inhibition in vivo at 0.001 %: 0.001% in powdery diet; for inhibition in vivo at 0.005 %: 0.005% in powdery diet. An excerpt: Hypoglycemic and Hypolipidemic Actions in Mice
Test compounds were mixed in a powdery diet (CE-2, Japan Clea) at the concentration of 0.01% (compounds of Examples 12, 30, 89, 186), 0.005% (compounds of Examples 7, 80, 82, 181, 182, 184, 256, 262, 283), 0.001% (compounds of Examples 9, 104, 110, 155, 156, 160, 167, 169, 172, 174, 176, 189), or 0.0003% (compounds of Examples 38, 40, 44), and freely given to KKA^y mice (9 to 12 weeks old, 5 mice in a group), a model of obese and type 2 diabetes mellitus, for four days. During this period, water was given freely. Blood was sampled from orbital venous plexus, and glucose and triglyceride levels in plasma separated from blood were determined enzymatically using L type Wako Glu2 (Wako Pure Chemical Industries, Ltd.) or L type Wako TG•H (Wako Pure Chemical Industries, Ltd.), respectively.
In the Table, the value of each treatment group is represented as percent reduction compared with the non-treatment group.

Data set [2] concerns KKA^y mice. Kind of data set: Total cholesterol lowering action and plasma anti-arteriosclerosis index-enhancing action in mice. Particulars: Mus musculus, po, 96 h, four days, non-treatment group taken as 100%; for change in vivo at 0.005 % / inhibition in vivo at 0.005 %: 0.005% in powdery diet; for change in vivo at 0.01 % / inhibition in vivo at 0.01 %: 0.01% in powdery diet. It is filed as in vivo. The text has this:
Total Cholesterol Lowering Action and Plasma Anti-Arteriosclerosis Index-Enhancing Action in Mice
Test compounds were mixed in a powdery diet (CE-2, Japan Clea) at the concentration of 0.01% (compounds of Examples 12, 30, 89), 0.005% (compounds of Examples 38, 40, 44, 181, 184, 262, 283), or 0.001% (compounds of Examples 9, 156, 167, 172, 174, 176, 189), and freely given to KKA^y mice (9 to 12 weeks old, 5 mice per group), a model of obese and type 2 diabetes mellitus, for four days. During this period, water was given freely. Blood was sampled from orbital venous plexus and plasma was separated. Total cholesterol levels were determined by using L type Wako Cholesterol (Wako Pure Chemical Industries, Ltd.). Precipitation reagent for apoB containing lipoprotein was added to a part of the plasma to precipitate non-HDL lipoprotein, and cholesterol (HDL cholesterol) in the resulting supernatant was determined. The plasma anti-arteriosclerosis index [(HDL cholesterol/total cholesterol)×100] was calculated by using these cholesterol levels.
In the Table, “Total cholesterol lowering action (%)” represents the percent reduction (%) of total cholesterol level in the treatment group, when the total cholesterol level in the non-treatment group is taken as 100%. “Plasma anti-arteriosclerosis index-enhancing action (%)” represents the percent increase (%) of plasma anti-arteriosclerosis index in the treatment group, when the plasma anti-arteriosclerosis index in the non-treatment group is taken as 100%.

[3] abbreviates: percent reduction of plasma glucose compared with the non-treatment group, read-out: Hypoglycemic action (%).
The mark [4] stands for this setting: percent reduction of plasma triglyceride compared with the non-treatment group, read-out: Hypolipidemic action (%).
The mark [5] stands for this setting: percent increase of [(HDL cholesterol/total cholesterol)×100], read-out: Plasma anti-arteriosclerosis index-enchancing action (%).
The mark [6] stands for this setting: percent reduction of plasma total cholesterol.

Where two headings read alike, the source gives them in different places.

In general, melting point refers to the temperature, or range, at which the solid turns liquid. As to `O=C(O)CCc1cn(Cc2ccc(OCc3coc(-c4ccccc4)n3)cc2)cc1-c1ccccc1` [Example 44, 3-[4-phenyl-1-[4-(2-phenyl-4-oxazolylmethoxy]benzyl]-3-pyrrolyl]propionic acid], the melting point was 139 to 140 °C. Also, in the data set on KKA^y mice [1] (setting [3]), the inhibition in vivo at 0.0003 % is 47%. The inhibition in vivo at 0.0003 % in the data set on KKA^y mice [1] (setting [4]) came out at 74%. For the same compound, the change in vivo at 0.005 % with KKA^y mice [2] (setting [5]) is 21%. Further, the inhibition in vivo at 0.005 % in the data set with KKA^y mice [2] (setting [6]) is 23%.

For the compound `Cc1oc(-c2ccccc2)nc1COc1ccc(Cn2cc(CCC(=O)O)c(-c3ccccc3)n2)cc1` [Example 89, 3-[1-[4-(5-methyl-2-phenyl-4-oxazolylmethoxy)benzyl]-3-phenyl-1H-pyrazol-4-yl]propionic acid], the melting point fell in the range of 179 to 180 °C. For the same compound, the inhibition in vivo at 0.01 % in the data set on KKA^y mice [1] (setting [3]) was determined as 48%. In addition, in the data set on KKA^y mice [1] (setting [4]), the inhibition in vivo at 0.01 % worked out at 70%. Besides, in the data set on KKA^y mice [2] (setting [5]), the change in vivo at 0.01 % was 15%. Further, the inhibition in vivo at 0.01 % in the data set with KKA^y mice [2] (setting [6]) came out at 8%.

For the compound `O=C(O)CCc1cn(Cc2ccc(OCc3csc(-c4ccco4)n3)cc2)cc1-c1ccccc1` [Example 38, 3-[1-[4-[2-(2-furyl)-4-thiazolylmethoxy]benzyl]-4-phenyl-3-pyrrolyl]propionic acid], the melting point was in the range of 114 to 115 °C. Besides, the inhibition in vivo at 0.0003 % in the data set with KKA^y mice [1] (setting [3]) stood at 44%. Besides, the inhibition in vivo at 0.0003 % in the data set with KKA^y mice [1] (setting [4]) was found to be 69%. The change in vivo at 0.005 % in the data set on KKA^y mice [2] (setting [5]) is 21%. Also, the inhibition in vivo at 0.005 % in the data set on KKA^y mice [2] (setting [6]) was 24%.

`O=C(O)CCc1cn(Cc2ccc(OCc3cccnc3)cc2)cc1-c1ccccc1` [Example 12, 3-[4-phenyl-1-[4-(3-pyridylmethoxy)benzyl]-3-pyrrolyl]propionic acid] displayed a melting point of 131 to 132 °C. In addition, the inhibition in vivo at 0.01 % in the data set on KKA^y mice [1] (setting [3]) was 46%. Also, the inhibition in vivo at 0.01 % in the data set with KKA^y mice [1] (setting [4]) came to 63%. Besides, in the data set with KKA^y mice [2] (setting [5]), the change in vivo at 0.01 % worked out at 24%. In addition, in the data set on KKA^y mice [2] (setting [6]), the inhibition in vivo at 0.01 % turned out to be 15%.

`Cc1oc(-c2cccs2)nc1COc1ccc(Cn2cc(CCC(=O)O)c(-c3ccccc3)c2)cc1` [Example 9, 3-[1-[4-[5-methyl-2-(2-thienyl)-4-oxazolylmethoxy]benzyl]-4-phenyl-3-pyrrolyl]propionic acid] came in with a melting point of 117 to 118 °C. Moreover, the inhibition in vivo at 0.001 % in the data set with KKA^y mice [1] (setting [3]) worked out at 48%. In addition, the inhibition in vivo at 0.001 % in the data set with KKA^y mice [1] (setting [4]) turned out to be 70%. In addition, the change in vivo at 0.001 % with KKA^y mice [2] (0.001% in powdery diet, percent increase of [(HDL cholesterol/total cholesterol)×100], read-out: Plasma anti-arteriosclerosis index-enchancing action (%)) was 12%. In addition, the inhibition in vivo at 0.001 % in the data set with KKA^y mice [2] (0.001% in powdery diet, percent reduction of plasma total cholesterol) worked out at 16%.

The compound `O=C(O)CCc1cn(Cc2ccc(OCc3csc(-c4cccs4)n3)cc2)cc1-c1ccccc1` [Example 40, 3-[4-phenyl-1-[4-[2-(2-thienyl)-4-thiazolylmethoxy]benzyl]-3-pyrrolyl]propionic acid] gave a melting point of 106 to 107 °C. Moreover, the inhibition in vivo at 0.0003 % with KKA^y mice [1] (setting [3]) came out at 41%. For the same compound, the inhibition in vivo at 0.0003 % in the data set on KKA^y mice [1] (setting [4]) was determined as 66%. In addition, the change in vivo at 0.005 % with KKA^y mice [2] (setting [5]) turned out to be 22%. Besides, the inhibition in vivo at 0.005 % in the data set with KKA^y mice [2] (setting [6]) worked out at 19%.

Compound `CCOc1nn(Cc2ccc(OCc3nc(-c4ccccc4)oc3C)nc2)cc1CC(=O)O` [Example 262, 3-ethoxy-1-[6-(5-methyl-2-phenyl-4-oxazolylmethoxy)-3-pyridylmethyl]-1H-pyrazol-4-ylacetic acid] displayed a melting point of 126 to 127 °C. Besides, the inhibition in vivo at 0.005 % with KKA^y mice [1] (setting [3]) amounted to 45%. The inhibition in vivo at 0.005 % in the data set with KKA^y mice [1] (setting [4]) was 61%. Besides, the change in vivo at 0.005 % in the data set on KKA^y mice [2] (setting [5]) is 9%. The inhibition in vivo at 0.005 % in the data set on KKA^y mice [2] (setting [6]) was 22%.

As to `Cc1oc(-c2ccccc2)nc1COc1ccc(Cn2cc(CCC(=O)O)c(-c3ccccc3)n2)cn1` [Example 283, 3-[1-[2-(5-methyl-2-phenyl-4-oxazolylmethoxy)-5-pyridylmethyl]-3-phenyl-1H-pyrazol-4-yl]propionic acid], the figures for the inhibition in vivo at 0.005 % in the data set with KKA^y mice [1] (setting [3]), with KKA^y mice [1] (setting [4]) and with KKA^y mice [2] (setting [6]) were 52%, 78% and 24%, respectively. Further, in the data set on KKA^y mice [2] (setting [5]), the change in vivo at 0.005 % turned out to be 19%.

With `O=C(O)CCc1cn(Cc2ccc(OCc3csc(-c4ccccc4)n3)cc2)cc1-c1ccccc1` [Example 30, 3-[4-phenyl-1-[4-(2-phenyl-4-thiazolylmethoxy)benzyl]-3-pyrrolyl]propionic acid], the melting point lay in the range of 111 to 112 °C. In addition, the inhibition in vivo at 0.01 % in the data set on KKA^y mice [1] (setting [3]) worked out at 54%. Also, in the data set with KKA^y mice [1] (setting [4]), the inhibition in vivo at 0.01 % came out at 77%. The change in vivo at 0.01 % with KKA^y mice [2] (setting [5]) worked out at 16%. In addition, the inhibition in vivo at 0.01 % in the data set on KKA^y mice [2] (setting [6]) came to 27%.
